Experimental data from patent US12448394B2, “Heterocyclic pyrazole derivatives as type III receptor tyrosine kinase inhibitors” (DEVELOPMENT CENTER FOR BIOTECHNOLOGY, priority 2019, dated 2025).

Key:
[1] = test system: THP-1 human acute monocytic leukemia cell with NRAS G12D mutation; assay: THP-1 cell proliferation assay (counter screen); assay type: cell-based; conditions: Homo sapiens, THP-1 cells, 72 hours treatment, CellTiter96, read-out: anti-proliferation activity THP-1 NRAS N12D, IC50 ranking
How it was run: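 THP-1 cells (NRAS G12D, growth independent of class III RTK signaling) seeded at 5000 cells/well overnight, then exposed to increasing compound concentrations for 72 h at 37° C, 5% CO2. Viability read by CellTiter96 AQueous One reagent (2–4 h) as absorbance at 490 nm.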

[2] = test system: MV4-11 human acute myeloid leukemia cell with FLT3-ITD mutation; assay: MV4-11 cell proliferation assay (CellTiter 96); assay type: cell-based; conditions: Homo sapiens, MV4-11, 72 h, MV4-11 cells, 72 hours treatment, CellTiter96; read-out: anti-proliferation activity MV4-11 (FLT3-ITD), IC50 ranking
How it was run: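 Cells seeded at 6500/well in IMDM with 10% heat-inactivated FBS, left overnight at 37 °C, 5% CO2, then exposed to increasing compound concentrations for 72 h. Viability read as absorbance at 490 nm after 2–4 h with CellTiter96 AQueous One reagent.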

PDGFRα kinase = biological target: T1, PDGFRα kinase (Homo sapiens, UniProt P16234); assay: PDGFRα kinase assay (AlphaScreen); assay type: biochemical; conditions: read-out: Ranking of IC50 values, PDGFRα
T1 construct: purchased SignalChem
How it was run: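 Recombinant PDGFRα (1.5 ng) phosphorylated biotinylated poly(Glu4:Tyr1) with 10 μM ATP in MOPS pH 7.0 with 10 mM MgCl2, 30 min at 30 °C, stopped with EDTA. Product detected by AlphaScreen; IC50 from serial dilutions run in duplicate.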

[3] = test system: A375 melanoma cell with BRAF V600E mutation; assay: A375 cell proliferation assay (counter screen); assay type: cell-based, human; conditions: Homo sapiens, A-375, A375 cells, 72 hours treatment, CellTiter96, read-out: anti-proliferation activity A375 BRAF V600E, IC50 ranking
How it was run: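 A375 cells (BRAF V600E) seeded at 2000 cells/well in DMEM with 10% FBS, settled overnight at 37° C, 5% CO2, then exposed to increasing compound concentrations for 72 hours. Viability read by MTS-type CellTiter96 AQueous reagent, absorbance at 490 nm after 2–4 hours.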

[4] = test system: HCC827 NSCLC cell with EGFR exon 19 deletion mutation; assay: HCC827 cell proliferation assay (counter screen); assay type: cell-based, human; conditions: Homo sapiens, HCC827 cells, 72 hours treatment, CellTiter96, read-out: anti-proliferation activity HCC827 EGFR Exon19 del, IC50 ranking
How it was run: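 HCC827 cells (EGFR exon 19 deletion) were seeded at 8000 cells/well in RPMI1640 with 10% FBS, then exposed to increasing compound concentrations for 72 h at 37 °C. Viability was read by CellTiter96 AQueous One (MTS), absorbance 490 nm after 2–4 h.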

MET kinase = biological target: T2, MET kinase (Homo sapiens, UniProt P08581); assay: MET kinase assay (AlphaScreen, counter screen); assay type: biochemical; conditions: read-out: Ranking of IC50 values, MET
T2 construct: purchased SignalChem
How it was run: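 Recombinant MET kinase (1 ng) phosphorylated biotinylated poly(Glu4:Tyr1) with […] ATP (so in the source) in MOPS pH 7.0 buffer with 10 mM MgCl2, 45 min at 30 °C, stopped with EDTA. Product read by AlphaScreen; IC50 from serial dilutions run in duplicate.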

T2 sequence (P08581 25-1390): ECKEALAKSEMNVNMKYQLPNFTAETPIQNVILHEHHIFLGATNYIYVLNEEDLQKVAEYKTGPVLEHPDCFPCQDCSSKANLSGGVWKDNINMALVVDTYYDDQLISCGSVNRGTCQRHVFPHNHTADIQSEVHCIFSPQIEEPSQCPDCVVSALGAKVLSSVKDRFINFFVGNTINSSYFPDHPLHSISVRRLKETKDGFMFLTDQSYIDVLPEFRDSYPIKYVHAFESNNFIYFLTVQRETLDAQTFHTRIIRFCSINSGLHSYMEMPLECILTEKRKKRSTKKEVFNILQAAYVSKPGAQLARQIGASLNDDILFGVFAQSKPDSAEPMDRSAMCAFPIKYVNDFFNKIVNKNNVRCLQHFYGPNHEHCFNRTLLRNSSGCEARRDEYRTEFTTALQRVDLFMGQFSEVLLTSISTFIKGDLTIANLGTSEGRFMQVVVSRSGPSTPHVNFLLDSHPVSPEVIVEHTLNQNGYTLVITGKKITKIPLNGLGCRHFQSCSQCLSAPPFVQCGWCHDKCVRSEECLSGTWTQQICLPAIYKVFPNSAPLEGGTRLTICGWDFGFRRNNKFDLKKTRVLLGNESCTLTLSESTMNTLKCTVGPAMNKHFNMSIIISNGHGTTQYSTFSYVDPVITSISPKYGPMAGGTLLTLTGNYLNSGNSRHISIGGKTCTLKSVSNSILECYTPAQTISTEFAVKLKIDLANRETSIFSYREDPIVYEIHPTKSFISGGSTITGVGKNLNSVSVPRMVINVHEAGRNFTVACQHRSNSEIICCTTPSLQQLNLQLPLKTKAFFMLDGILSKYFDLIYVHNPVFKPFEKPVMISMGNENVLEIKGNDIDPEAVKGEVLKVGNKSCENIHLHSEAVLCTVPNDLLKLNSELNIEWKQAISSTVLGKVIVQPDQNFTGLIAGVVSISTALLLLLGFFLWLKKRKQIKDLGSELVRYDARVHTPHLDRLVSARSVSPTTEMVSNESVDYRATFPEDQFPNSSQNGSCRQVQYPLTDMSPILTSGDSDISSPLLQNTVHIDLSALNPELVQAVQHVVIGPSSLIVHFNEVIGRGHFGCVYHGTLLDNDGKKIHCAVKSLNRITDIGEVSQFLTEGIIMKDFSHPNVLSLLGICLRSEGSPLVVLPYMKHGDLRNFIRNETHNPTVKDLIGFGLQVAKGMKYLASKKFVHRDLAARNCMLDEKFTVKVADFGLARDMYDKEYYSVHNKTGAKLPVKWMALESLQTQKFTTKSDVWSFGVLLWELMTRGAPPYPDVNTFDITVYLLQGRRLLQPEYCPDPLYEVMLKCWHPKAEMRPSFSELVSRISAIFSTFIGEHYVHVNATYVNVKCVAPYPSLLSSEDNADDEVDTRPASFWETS
T1 sequence (P16234 24-1089): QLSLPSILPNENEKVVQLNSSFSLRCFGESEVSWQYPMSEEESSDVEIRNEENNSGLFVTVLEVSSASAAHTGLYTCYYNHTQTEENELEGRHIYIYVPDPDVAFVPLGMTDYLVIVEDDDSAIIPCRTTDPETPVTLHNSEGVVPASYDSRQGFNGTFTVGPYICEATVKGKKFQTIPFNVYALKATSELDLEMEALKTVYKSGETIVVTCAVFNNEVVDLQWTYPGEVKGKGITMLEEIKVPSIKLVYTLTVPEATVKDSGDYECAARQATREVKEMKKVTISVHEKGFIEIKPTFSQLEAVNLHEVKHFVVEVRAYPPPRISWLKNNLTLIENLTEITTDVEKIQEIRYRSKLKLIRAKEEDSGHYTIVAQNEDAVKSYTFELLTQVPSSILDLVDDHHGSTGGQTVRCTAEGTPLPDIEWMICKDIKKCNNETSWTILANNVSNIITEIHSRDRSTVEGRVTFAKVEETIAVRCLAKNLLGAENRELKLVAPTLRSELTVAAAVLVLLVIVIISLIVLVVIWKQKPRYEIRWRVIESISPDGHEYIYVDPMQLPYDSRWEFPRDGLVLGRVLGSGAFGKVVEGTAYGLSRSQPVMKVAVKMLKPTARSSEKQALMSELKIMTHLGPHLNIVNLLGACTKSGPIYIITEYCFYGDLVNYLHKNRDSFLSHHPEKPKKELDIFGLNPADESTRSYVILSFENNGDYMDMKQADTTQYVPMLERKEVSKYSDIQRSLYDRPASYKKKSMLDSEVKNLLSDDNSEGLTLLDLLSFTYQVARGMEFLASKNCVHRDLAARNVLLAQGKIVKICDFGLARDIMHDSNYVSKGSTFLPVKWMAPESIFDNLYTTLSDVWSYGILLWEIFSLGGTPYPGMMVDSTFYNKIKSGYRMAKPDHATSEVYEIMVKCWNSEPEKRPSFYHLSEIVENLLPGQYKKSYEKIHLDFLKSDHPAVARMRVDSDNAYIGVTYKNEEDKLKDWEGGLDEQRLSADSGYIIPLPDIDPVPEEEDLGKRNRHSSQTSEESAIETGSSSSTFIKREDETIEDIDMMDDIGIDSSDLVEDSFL

Row | IC50 [2] [nM] | IC50 (PDGFRα kinase) [nM] | IC50 (MET kinase) [nM] | Structure (SMILES) | IC50 [1] [nM] | IC50 [3] [nM] | IC50 [4] [nM]
1 | < 30 | 1 to 10 | 300 to 1000 | CN(C)Cc1ccc(-c2cc3c(s2)Cc2c(-c4ccc5cnn(C)c5c4)n[nH]c2-3)cc1 [Compound 94, N,N-dimethyl-1-(4-(3-(1-methyl-1H-indazol-6-yl)-1,4-dihydrothieno [2′,3′:4,5]cyclopenta [1,2-c]pyrazol-6-yl)phenyl)methanamine] | 1000 to 10000 | 1000 to 10000 | 1000 to 10000
2 | < 30 | 1 to 10 | > 1000 | Cn1ncc2ccc(-c3n[nH]c4c3Cc3sc(-c5ccc(CN6CCNCC6=O)cc5)cc3-4)cc21 [Compound 101, 1-(4-(3-(1-methyl-1H-indazol-6-yl)-1,4-dihydro-thieno[2′,3′:4,5]cyclopenta [1,2-c]pyrazol-6-yl)benzyl)piperazin-2-one] | > 10000 | > 10000 | > 10000

Continued, molecule first:

Row | Structure (SMILES) | IC50 [2] [nM] | IC50 (PDGFRα kinase) [nM] | IC50 (MET kinase) [nM] | IC50 [1] [nM] | IC50 [3] [nM] | IC50 [4] [nM]
3 | Cc1cc(CN2CCOCC2)ccc1-c1cc2c(s1)Cc1c(-c3ccc4cnn(C)c4c3)n[nH]c1-2 [Compound 91, 4-(3-methyl-4-(3-(1-methyl-1H-indazol-6-yl)-1,4-dihydrothieno [2′,3′:4,5]cyclopenta [1,2-c]pyrazol-6-yl)benzyl)morpholine] | 100 to 300 | 30 to 100 | > 1000 | 1000 to 10000 | > 10000 | > 10000
4 | Cn1ncc2ccc(-c3n[nH]c4c3Cc3sc(-c5ccc(N)nc5)cc3-4)cc21 [Compound 92, 5-(3-(1-methyl-1H-indazol-6-yl)-1,4-dihydro-thieno[2′,3′:4,5]cyclopenta [1,2-c]pyrazol-6-yl) pyridin-2-amine] | < 30 | 1 to 10 | > 1000 | 1000 to 10000 | 1000 to 10000 | > 10000
5 | CN(C)Cc1ccc(-c2cc3c(s2)Cc2c(-c4ccc5cnn(C)c5c4)n[nH]c2-3)cn1 [Compound 93, N,N-dimethyl-1-(5-(3-(1-methyl-1H-indazol-6-yl)-1,4-dihydrothieno [2′,3′:4,5]cyclopenta [1,2-c]pyrazol-6-yl)pyridin-2-yl)methanamine] | 30 to 100 | 100 to 300 | > 1000 | > 10000 | > 10000 | > 10000
